# Data: patent US10544075B2 (OREGON HEALTH & SCIENCE UNIVERSITY, priority 2016, dated 2020)
# Experiments:
# [1] = Single time-point drug distribution of parent drugs from amides in brain and serum; format: in vivo, C57Bl/6 mice; conditions: equimolar systemic dose of 3.05 μmol/kg, 1 hour, brain
# Protocol: Wild type male C57Bl/6 mice, aged 8-10 weeks, were housed in a climate-controlled room with a 12 hour light-dark cycle with ad libitum access to food and water. To compare the single time-point drug distribution of JD-20 with JD-20 generated from the amide MA-JD20, and JD-21 with JD-21 generated from the amide MA-JD-21, the concentrations of the parent drugs were analyzed in brain and serum of mice by administering a dose of 3.05 μmol/kg (three mice per dose) with JD-20, JD-21, MA-JD20 and MA-JD21 both intraperitoneally and orally. The compounds were dissolved in a mixture of 50:50 DMSO and 0.9% sodium chloride bacteriostatic solution. Oral gavage was performed with the use of plastic feeding tubes (20 ga×38 mm, Instech Laboratories Inc., PA, USA) connected to […] insulin syringes (Covidien LLC MA, USA). In both experiments, the mice were euthanized after 1 hour following drug administration.
# The tissues were processed as follows: The brains were collected in previously weighed homogenizer tubes with 3 Gold Spec ⅛ chrome steel balls (Applied Industrial Technologies) and immediately frozen at −80° C. The blood samples were kept on ice for 30 mins and then spun down at 5400×G at 4° C. for 15 min. […]
# The serum samples were warmed to room temperature. […] The serum samples thus prepared were submitted for LC-MS/MS analysis to quantify the amount of free JD-20 or JD-21. […]
# [2] = biological target: Human FAAH (Homo sapiens (Human), UniProt O00519); test: FAAH activity in cell homogenate; format: biochemical
# Chain of Human FAAH (O00519 whole entry): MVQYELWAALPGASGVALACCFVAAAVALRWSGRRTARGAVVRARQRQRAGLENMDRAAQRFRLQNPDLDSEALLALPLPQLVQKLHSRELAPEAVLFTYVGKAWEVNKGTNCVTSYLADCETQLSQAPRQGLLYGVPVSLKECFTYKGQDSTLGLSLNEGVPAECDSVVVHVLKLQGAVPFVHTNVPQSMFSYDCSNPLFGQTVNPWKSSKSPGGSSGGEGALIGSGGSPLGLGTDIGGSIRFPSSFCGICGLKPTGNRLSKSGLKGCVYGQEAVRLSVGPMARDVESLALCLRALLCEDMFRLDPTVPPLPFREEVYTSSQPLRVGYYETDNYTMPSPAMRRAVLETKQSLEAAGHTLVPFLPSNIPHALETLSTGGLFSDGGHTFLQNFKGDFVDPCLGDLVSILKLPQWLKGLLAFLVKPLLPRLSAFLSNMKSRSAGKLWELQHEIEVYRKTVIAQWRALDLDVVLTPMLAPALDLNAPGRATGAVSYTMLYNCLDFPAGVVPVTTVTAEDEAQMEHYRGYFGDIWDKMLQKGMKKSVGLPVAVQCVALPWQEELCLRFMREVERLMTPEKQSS
# Protocol: COS-7 cells (ATCC CRL-1651) were cultured in Dulbecco's Modified Eagle's Medium supplemented with 10% FBS, penicillin ([…]), and streptomycin ([…]). Cells (800,000/well) were seeded into 6-well plates (Falcon 353046) and left to adhere overnight. Cells were transfected with pcDNA4-FAAH-FLAG with Lipofectamine 2000 (Invitrogen) according to the manufacturer's protocol. Mock transfection controls were done with transfection reagent and no DNA. Cells were washed 4-days post transfection with cold PBS and scraped into TE buffer (125 mM Tris, 1 mM EDTA, pH 9) and sonicated (10 sec, 60 Sonic Dismembrator, Fisher). Cell homogenates were stored at −80° C. and protein concentrations were determined by BCA (Pierce). Cell homogenates were diluted into TE buffer containing 0.1% fatty-acid free BSA (Alfa Aesar). Substrates were added as 50× stocks in DMSO into 50 μL aliquots of homogenate to a final concentration of 100 μM. Reactions were performed with homogenate protein at 31.25 μg/mL for 15 min at 37° C. Reactions were quenched with 100 μL acetonitrile and vortexed for 20 s. Samples were clarified by centrifuge (10,000 rpm, 15 min, 4° C.). The supernatant is diluted 50-fold into 2:1 MeCN:H2O containing 300 nM d11-arachindonic acid and 30 nM d6-sobetirome. Samples were centrifuged again (13,200 rpm, 15 min, 4° C.). Products were quantified by LC/MS-MS with standard curves generated from mock samples. Observed rates are expressed as nmol product per mg protein homogenate per min.
# FAAH was overexpressed in COS-7 cells as described above and cell homogenate was used to measure observed rates of substrate cleavage compared with the classic endogenous FAAH substrate anandamide (AEA). Substrate were all tested at 100 μM. Compared to AEA, the thyromimetic amides MA-GC 1 (9-fold), MA-JD20 (31-fold), and MA-JD21 (20-fold) show decreased rates. […] Observed rates are expressed as nmol product per mg homogenate protein per min.
# [3] = 24 h time-course study after oral dose of MA-JD20; format: in vivo, mice; conditions: oral MA-JD20, JD-20 measured
# Protocol: As a follow-up of the single time point study, a 24 h time course study through oral gavage was performed for the amides, MA-JD20 and MA-JD21, and the corresponding JD-20 or JD-21 concentrations were measured in brain and blood of mice. Pharmacokinetic time-course curves were generated from these analyses and area under the curve (AUC) values for brain and blood were obtained.
# Following the single time point drug distribution evaluation, to further understand the pharmacokinetic properties of the amide, a 24 h time-course study was conducted by administering an oral dose of […] of MA-JD20 to mice. The JD-20 concentrations generated in brain and blood were analyzed and area under the curve (AUC) values for brain and serum were obtained (FIG. 7). The AUCbrain/AUCserum ratio for amide MA-JD-20 is observed to be 0.89. […] The results obtained from the single point drug distribution were confirmed by the AUC analyses.
smiles,measurement,setting,value
"CNC(=O)COc1cc(Br)c(Cc2ccc(O)c(C(C)C)c2)c(Br)c1 [MA-JD20, 2-(3,5-dibromo-4-(4-hydroxy-3-isopropylbenzyl)phenoxy)-N-methylacetamide]",parent drug delivered to the CNS compared to unmodified JD-20 or JD-21,[1],delivers more of the parent drugs to the CNS
same,FAAH substrate,"[2]; 100 μM, COS-7 cell homogenate",substrates for fatty-acid amide hydrolase (FAAH)
same,decreased observed rate of substrate cleavage compared to AEA,"[2]; substrate 100 μM, FAAH overexpressed in COS-7 cell homogenate",31 fold
same,Cmax and Tmax time in the brain tissue,[3],around 2 h
